Experimental data taken from US9309242B2, “Substituted pyrido[2,3-b]pyrazines as FGFR kinase inhibitors” (priority 2011, dated 2016).

What was measured:
FGFR2 (h) = FGFR2 (h) (Homo sapiens, UniProt P21802); assay: FGFR2 (enzymatic assay), TR-FRET; type: biochemical; settings: enzymatic assay; read-out: FGFR 2 pIC50 (converted)
How it was run: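 Human FGFR2 (150 ng/ml) was incubated with 500 nM Btn-Flt3 substrate and 0.4 μM ATP in 50 mM HEPES pH 7.5, 6 mM MnCl2, 1 mM DTT, 0.1 mM Na3VO4, 0.01% Triton-X-100. Compound was present at 1% DMSO final.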

[1] = target: T1, Ba/F3-KDR-transfected cells (Homo sapiens, UniProt P35968); assay: Ba/F3-KDR (minus IL3) cellular proliferation assay, Alamar Blue; type: cell-based
T1 construct: BAF3-KDR (MIN IL3) pIC50; other: minus IL3
How it was run: (§1)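 Ba/F3-KDR-transfected cells, 20000 per well in phenol red free RPMI-1640 with 10% FBS, exposed to compound 24 hours at 37° C, 5% CO2; Alamar Blue then added for 4 hours and fluorescence read (ex. 540 nm, em. 590 nm). Plus-IL3 counterscreen run identically with 10 ng/ml murine IL3.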

[2] = test system: Ba/F3-KDR-transfected cells; assay: Ba/F3-KDR (plus IL3) cellular proliferation assay, counterscreen with 10 ng/ml murine IL3; type: cell-based; settings: plus IL3 (10 ng/ml murine IL3, counterscreen); read-out: BAF3-KDR (PLUS IL3) pIC50 (converted)
How it was run: as §1

Sequence of FGFR2 (h) (P21802 22-821): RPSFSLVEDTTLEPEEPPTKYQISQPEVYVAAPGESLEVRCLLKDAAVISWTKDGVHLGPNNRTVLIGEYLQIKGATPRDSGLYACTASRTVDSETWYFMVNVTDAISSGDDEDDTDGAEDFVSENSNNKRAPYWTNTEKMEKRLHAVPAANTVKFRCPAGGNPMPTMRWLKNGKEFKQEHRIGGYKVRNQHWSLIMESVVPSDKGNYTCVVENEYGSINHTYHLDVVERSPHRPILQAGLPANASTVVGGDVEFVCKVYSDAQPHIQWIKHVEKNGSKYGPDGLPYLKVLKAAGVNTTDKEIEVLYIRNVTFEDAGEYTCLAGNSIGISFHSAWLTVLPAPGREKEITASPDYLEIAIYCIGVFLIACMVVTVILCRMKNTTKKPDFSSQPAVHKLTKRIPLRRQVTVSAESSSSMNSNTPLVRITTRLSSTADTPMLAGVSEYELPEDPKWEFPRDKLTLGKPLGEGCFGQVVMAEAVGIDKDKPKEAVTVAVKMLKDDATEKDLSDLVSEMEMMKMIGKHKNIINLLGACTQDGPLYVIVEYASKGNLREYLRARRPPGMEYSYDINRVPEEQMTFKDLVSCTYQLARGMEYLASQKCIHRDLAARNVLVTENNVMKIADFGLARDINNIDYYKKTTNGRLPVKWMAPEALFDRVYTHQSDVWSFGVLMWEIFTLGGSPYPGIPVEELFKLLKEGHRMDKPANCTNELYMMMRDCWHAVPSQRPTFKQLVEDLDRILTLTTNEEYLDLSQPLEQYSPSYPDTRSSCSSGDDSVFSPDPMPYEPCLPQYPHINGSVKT
T1 sequence (P35968 whole entry, change not shown): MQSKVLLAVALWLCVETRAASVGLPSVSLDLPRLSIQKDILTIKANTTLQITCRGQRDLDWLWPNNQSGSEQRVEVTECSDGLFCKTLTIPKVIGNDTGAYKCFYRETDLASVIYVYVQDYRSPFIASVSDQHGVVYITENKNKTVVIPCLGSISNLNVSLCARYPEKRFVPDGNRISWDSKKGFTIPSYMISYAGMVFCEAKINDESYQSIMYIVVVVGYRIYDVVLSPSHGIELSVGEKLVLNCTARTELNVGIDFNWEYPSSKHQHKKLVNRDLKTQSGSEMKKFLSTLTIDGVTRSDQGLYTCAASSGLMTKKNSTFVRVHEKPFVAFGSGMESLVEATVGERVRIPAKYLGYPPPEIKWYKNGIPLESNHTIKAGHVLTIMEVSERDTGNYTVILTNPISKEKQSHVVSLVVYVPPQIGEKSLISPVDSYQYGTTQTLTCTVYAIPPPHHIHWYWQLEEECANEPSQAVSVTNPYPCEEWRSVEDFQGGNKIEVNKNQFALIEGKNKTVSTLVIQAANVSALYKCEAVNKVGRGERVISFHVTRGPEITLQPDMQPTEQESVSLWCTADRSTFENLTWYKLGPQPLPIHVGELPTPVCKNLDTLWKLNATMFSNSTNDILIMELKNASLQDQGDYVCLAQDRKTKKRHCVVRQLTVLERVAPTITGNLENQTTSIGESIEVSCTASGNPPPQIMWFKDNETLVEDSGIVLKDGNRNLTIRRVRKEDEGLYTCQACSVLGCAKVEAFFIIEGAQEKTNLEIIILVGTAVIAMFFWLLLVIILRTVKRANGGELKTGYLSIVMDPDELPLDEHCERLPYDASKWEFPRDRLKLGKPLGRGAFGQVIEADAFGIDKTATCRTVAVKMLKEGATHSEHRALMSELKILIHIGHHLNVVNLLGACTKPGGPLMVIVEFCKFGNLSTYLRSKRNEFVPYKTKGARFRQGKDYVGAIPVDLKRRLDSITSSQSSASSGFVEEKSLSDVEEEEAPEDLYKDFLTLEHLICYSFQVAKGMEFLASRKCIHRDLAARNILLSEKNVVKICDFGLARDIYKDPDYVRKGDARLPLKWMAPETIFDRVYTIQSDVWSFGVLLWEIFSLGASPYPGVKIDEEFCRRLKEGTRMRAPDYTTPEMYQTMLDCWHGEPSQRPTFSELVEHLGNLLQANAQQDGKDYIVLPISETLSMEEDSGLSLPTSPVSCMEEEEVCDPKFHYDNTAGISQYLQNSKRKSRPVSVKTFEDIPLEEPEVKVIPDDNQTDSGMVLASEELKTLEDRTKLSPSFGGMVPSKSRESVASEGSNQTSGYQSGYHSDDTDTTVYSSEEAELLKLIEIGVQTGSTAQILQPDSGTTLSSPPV

In the case of `COc1cc(OC)c(F)c(N(CCNC2COC2)c2ccc3ncc(-c4cnn(C)c4)nc3n2)c1F` (single isomer, unassigned) [Compound 162], the IC50 (FGFR2 (h)) is reported as 2.19 nM, the “BAF3-KDR (MIN IL3) pIC50” value [1] is reported as 6.61 and the IC50 [2] is reported as over 10000 nM. The melting point was 183 °C.

In the case of `CCOCc1c[nH]c(CN(c2ccc3ncc(-c4cnn(C)c4)nc3n2)c2cc(OC)cc(OC)c2F)n1` [Compound 206], the IC50 (FGFR2 (h)) is reported as 4.17 nM, the “BAF3-KDR (MIN IL3) pIC50” value [1] is reported as 5.84 and the IC50 [2] is reported as over 10000 nM.

With `COc1cc(OC)c(F)c(N(Cc2ncc[nH]2)c2ccc3ncc(-c4cnn(C(CO)CCl)c4)nc3n2)c1` (stereo not shown) [Compound 209] the IC50 (FGFR2 (h)) was 2.4 nM, the “BAF3-KDR (MIN IL3) pIC50” value [1] was 6.57 and the IC50 [2] was over 10000 nM.

In the case of `COc1cc(OC)c(F)c(N(Cc2ncc[nH]2)c2ccc3ncc(-c4ccncc4)nc3n2)c1` [Compound 211], the IC50 (FGFR2 (h)) is reported as about 2.34 nM, the “BAF3-KDR (MIN IL3) pIC50” value [1] is reported as 5.82 and the IC50 [2] is reported as over 10000 nM.

For `COc1cc(OC)cc(N(CCO)c2ccc3ncc(-c4ccncc4)nc3n2)c1` [Compound 213], the IC50 (FGFR2 (h)) was 5.62 nM, the “BAF3-KDR (MIN IL3) pIC50” value [1] was 5.01 and the IC50 [2] was over 10000 nM.

For `COC(=O)CN(c1ccc2ncc(-c3cnn(C)c3)nc2n1)c1cc(OC)cc(OC)c1F` [Compound 214], the IC50 (FGFR2 (h)) was 2.57 nM, the “BAF3-KDR (MIN IL3) pIC50” value [1] was 5.31 and the IC50 [2] was over 10000 nM.

For `COc1cc(OC)c(F)c(N(Cc2ncc[nH]2)c2ccc3ncc(N4CCOCC4)nc3n2)c1F` [Compound 215], the IC50 (FGFR2 (h)) was 2.09 nM, the “BAF3-KDR (MIN IL3) pIC50” value [1] was 5.91 and the IC50 [2] was over 10000 nM.

For `COc1cc(OC)c(F)c(N(Cc2nc(OC)cc(OC)n2)c2ccc3ncc(-c4cnn(C)c4)nc3n2)c1` [Compound 220], the IC50 (FGFR2 (h)) was 6.92 nM, the “BAF3-KDR (MIN IL3) pIC50” value [1] was 5.22 and the IC50 [2] was over 10000 nM.

For `COc1cc(OC)c(F)c(N(CCNC2COC2)c2ccc3ncc(-c4cnn(C)c4)nc3n2)c1` [Compound 221], the IC50 (FGFR2 (h)) was 3.09 nM, the “BAF3-KDR (MIN IL3) pIC50” value [1] was 6.11 and the IC50 [2] was over 10000 nM.

In the case of `COc1cc(OC)c(F)c(N(CCN(C2COC2)C2COC2)c2ccc3ncc(-c4cnn(C)c4)nc3n2)c1` [Compound 222], the IC50 (FGFR2 (h)) is reported as 5.25 nM, the “BAF3-KDR (MIN IL3) pIC50” value [1] is reported as 5.68 and the IC50 [2] is reported as over 10000 nM.

For `CCn1cc(-c2cnc3ccc(N(Cc4ncc[nH]4)c4cc(OC)cc(OC)c4F)nc3n2)cn1` [Compound 223], the IC50 (FGFR2 (h)) was 1.58 nM, the “BAF3-KDR (MIN IL3) pIC50” value [1] was 6.81 and the IC50 [2] was over 10000 nM.

For `COc1cc(OC)c(F)c(N(CC(=O)c2cnn(C)c2)c2ccc3ncc(-c4cnn(C)c4)nc3n2)c1` [Compound 225], the IC50 (FGFR2 (h)) was about 7.08 nM, the “BAF3-KDR (MIN IL3) pIC50” value [1] was 5.17 and the IC50 [2] was over 10000 nM.

With `COc1cc(OC)cc(N(Cc2ncc[nH]2)c2ccc3ncc(-c4cnn(C5CCNCC5)c4)nc3n2)c1` [Compound 227] the IC50 (FGFR2 (h)) was 1.45 nM, the “BAF3-KDR (MIN IL3) pIC50” value [1] was 5.79 and the IC50 [2] was over 10000 nM.

For `COc1cc(OC)c(F)c(N(Cc2nc(CO)c[nH]2)c2ccc3ncc(-c4cnn(C)c4)nc3n2)c1` [Compound 232], the IC50 (FGFR2 (h)) was about 2.75 nM, the “BAF3-KDR (MIN IL3) pIC50” value [1] was 5.83 and the IC50 [2] was over 10000 nM.

With `COc1cc(OC)c(F)c(N(Cc2nc(Br)c[nH]2)c2ccc3ncc(-c4cnn(C)c4)nc3n2)c1` [Compound 238] the IC50 (FGFR2 (h)) was 2.14 nM, the “BAF3-KDR (MIN IL3) pIC50” value [1] was 6.46 and the IC50 [2] was over 10000 nM.

In the case of `COc1cc(OC)c(F)c(N(Cc2ncc[nH]2)c2ccc3ncc(-c4cnn(CC(C)(C)O)c4)nc3n2)c1` [Compound 240], the IC50 (FGFR2 (h)) is reported as 2.57 nM, the “BAF3-KDR (MIN IL3) pIC50” value [1] is reported as 6.89 and the IC50 [2] is reported as over 10000 nM.

With `COc1cc(OC)c(F)c(N(CCNC(C)=O)c2ccc3ncc(-c4cnn(C)c4)nc3n2)c1` [Compound 242] the IC50 (FGFR2 (h)) was 2.95 nM, the “BAF3-KDR (MIN IL3) pIC50” value [1] was 5.49 and the IC50 [2] was over 10000 nM.

For `COc1cc(/N=c2\ccc3ncc(-c4cnn(C)c4)nc3n2CC2CCC(=O)N2)cc(OC)c1` (stereo not shown) [Compound 248], the IC50 (FGFR2 (h)) was 3.63 nM, the “BAF3-KDR (MIN IL3) pIC50” value [1] was 5.76 and the IC50 [2] was over 10000 nM.

With `COc1cc(OC)c(F)c(N(Cc2n[nH]c(=O)o2)c2ccc3ncc(-c4cnn(C)c4)nc3n2)c1` [Compound 284] the IC50 (FGFR2 (h)) was 2.14 nM, the “BAF3-KDR (MIN IL3) pIC50” value [1] was under 5 and the IC50 [2] was over 10000 nM.
